According to the supplement of paper PMC4862054:

Tested on: CAL-148
Assay: normalised viability (% of control), CellTiter-Blue; higher = more viable cells (about 100 = DMSO control)
Details: incubation time: 72 h
Protocol: (§1)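 DSRT, CellTiter-Blue viability, 72 h incubation. Signal is normalised to DMSO and benzethonium chloride controls. Value is the normalised response at dose 7.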

| Structure (SMILES) | normalised viability |
| --- | --- |
| CCN(CC)CCCC(C)Nc1ccnc2cc(Cl)ccc12 (stereo not given) [Chloroquine] (99 nM) | 99.1% |
| CN(Cc1cnc2nc(N)nc(N)c2n1)c1ccc(C(=O)N[C@@H](CCC(=O)O)C(=O)O)cc1 [Methotrexate] (1000 nM) | 67.8% |
| COc1c2occc2cc2ccc(=O)oc12 [Methoxsalen] (1000 nM) | 106% |
| C=CCN(/C=C1/C(=O)O[C@H](COC)[C@@]2(C)C1=C(O)C(=O)C1=C2[C@H](OC(C)=O)C[C@]2(C)C(=O)CC[C@@H]12)CC=C [PX-866] (1000 nM) | 99.4% |
| CC[C@H](CO)Nc1nc(NCc2ccccc2)c2ncn(C(C)C)c2n1 [Roscovitine] (1000 nM) | 92.1% |

Tested on: DU-4475
Assay: as above
Details: incubation time: 72 h
Protocol: as §1

| Structure (SMILES) | normalised viability |
| --- | --- |
| CCN(CC)CCCC(C)Nc1ccnc2cc(Cl)ccc12 (stereo not given) [Chloroquine] (99 nM) | 110% |
| CN(Cc1cnc2nc(N)nc(N)c2n1)c1ccc(C(=O)N[C@@H](CCC(=O)O)C(=O)O)cc1 [Methotrexate] (1000 nM) | 110% |
| COc1c2occc2cc2ccc(=O)oc12 [Methoxsalen] (1000 nM) | 112% |
| C=CCN(/C=C1/C(=O)O[C@H](COC)[C@@]2(C)C1=C(O)C(=O)C1=C2[C@H](OC(C)=O)C[C@]2(C)C(=O)CC[C@@H]12)CC=C [PX-866] (1000 nM) | 102% |
| CC[C@H](CO)Nc1nc(NCc2ccccc2)c2ncn(C(C)C)c2n1 [Roscovitine] (1000 nM) | 101% |

Tested on: CAL-85-1
Assay: as above
Details: incubation time: 72 h
Protocol: as §1

| Structure (SMILES) | normalised viability |
| --- | --- |
| CCN(CC)CCCC(C)Nc1ccnc2cc(Cl)ccc12 (stereo not given) [Chloroquine] (99 nM) | 81.9% |
| CN(Cc1cnc2nc(N)nc(N)c2n1)c1ccc(C(=O)N[C@@H](CCC(=O)O)C(=O)O)cc1 [Methotrexate] (1000 nM) | 57.4% |
| COc1c2occc2cc2ccc(=O)oc12 [Methoxsalen] (1000 nM) | 104% |
| C=CCN(/C=C1/C(=O)O[C@H](COC)[C@@]2(C)C1=C(O)C(=O)C1=C2[C@H](OC(C)=O)C[C@]2(C)C(=O)CC[C@@H]12)CC=C [PX-866] (1000 nM) | 95% |
| CC[C@H](CO)Nc1nc(NCc2ccccc2)c2ncn(C(C)C)c2n1 [Roscovitine] (1000 nM) | 87.8% |

Tested on: CAL-51
Assay: as above
Details: incubation time: 72 h
Protocol: as §1

| Structure (SMILES) | normalised viability |
| --- | --- |
| CCN(CC)CCCC(C)Nc1ccnc2cc(Cl)ccc12 (stereo not given) [Chloroquine] (99 nM) | 91% |
| CN(Cc1cnc2nc(N)nc(N)c2n1)c1ccc(C(=O)N[C@@H](CCC(=O)O)C(=O)O)cc1 [Methotrexate] (1000 nM) | 42.5% |
| COc1c2occc2cc2ccc(=O)oc12 [Methoxsalen] (1000 nM) | 100% |
| C=CCN(/C=C1/C(=O)O[C@H](COC)[C@@]2(C)C1=C(O)C(=O)C1=C2[C@H](OC(C)=O)C[C@]2(C)C(=O)CC[C@@H]12)CC=C [PX-866] (1000 nM) | 112% |
| CC[C@H](CO)Nc1nc(NCc2ccccc2)c2ncn(C(C)C)c2n1 [Roscovitine] (1000 nM) | 105% |

Tested on: MDA-MB-453
Assay: as above
Details: incubation time: 72 h
Protocol: as §1

| Structure (SMILES) | normalised viability |
| --- | --- |
| CCN(CC)CCCC(C)Nc1ccnc2cc(Cl)ccc12 (stereo not given) [Chloroquine] (99 nM) | 99.7% |
| CN(Cc1cnc2nc(N)nc(N)c2n1)c1ccc(C(=O)N[C@@H](CCC(=O)O)C(=O)O)cc1 [Methotrexate] (1000 nM) | 84.2% |
| COc1c2occc2cc2ccc(=O)oc12 [Methoxsalen] (1000 nM) | 97.9% |
| C=CCN(/C=C1/C(=O)O[C@H](COC)[C@@]2(C)C1=C(O)C(=O)C1=C2[C@H](OC(C)=O)C[C@]2(C)C(=O)CC[C@@H]12)CC=C [PX-866] (1000 nM) | 101% |
| CC[C@H](CO)Nc1nc(NCc2ccccc2)c2ncn(C(C)C)c2n1 [Roscovitine] (1000 nM) | 96.2% |

Tested on: HDQ-P1
Assay: as above
Details: incubation time: 72 h
Protocol: as §1

| Structure (SMILES) | normalised viability |
| --- | --- |
| CCN(CC)CCCC(C)Nc1ccnc2cc(Cl)ccc12 (stereo not given) [Chloroquine] (99 nM) | 132% |
| CN(Cc1cnc2nc(N)nc(N)c2n1)c1ccc(C(=O)N[C@@H](CCC(=O)O)C(=O)O)cc1 [Methotrexate] (1000 nM) | 77.6% |
| COc1c2occc2cc2ccc(=O)oc12 [Methoxsalen] (1000 nM) | 96.9% |
| C=CCN(/C=C1/C(=O)O[C@H](COC)[C@@]2(C)C1=C(O)C(=O)C1=C2[C@H](OC(C)=O)C[C@]2(C)C(=O)CC[C@@H]12)CC=C [PX-866] (1000 nM) | 86.3% |
| CC[C@H](CO)Nc1nc(NCc2ccccc2)c2ncn(C(C)C)c2n1 [Roscovitine] (1000 nM) | 104% |

Tested on: MDA-MB-231
Assay: normalised response (% of control), CellTox Green; higher = less cell death (100 = DMSO, 0 = benzethonium chloride kill control)
Details: incubation time: 72 h
Outline: (§2)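 Breast cancer cell lines were exposed for 72 h in 384-well plates to compound at 5 concentrations, 10-fold apart, covering a 10,000-fold range fixed for each compound. Plates were read for CellTox Green fluorescence and CellTiter-Glo luminescence and normalised to 0.1 % DMSO (100) and a positive kill control (0). Each value is the normalised signal at one concentration of the series.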

| Structure (SMILES) | normalised response |
| --- | --- |
| CC1(COc2ccc3c(c2)ncn3-c2ccc3cccc(N4CCC(N)CC4)c3n2)COC1 [Crenolanib] (10000 nM) | -59% |
| CC[C@H](CO)Nc1nc(NCc2ccccc2)c2ncn(C(C)C)c2n1 [Seliciclib] (10000 nM) | 108% |
| O=[N+]([O-])c1ccc2c(c1)S(=O)(=O)C=C2 [Stattic] (50000 nM) | -17.4% |
| CC(C)n1cnc2c(NCCc3ccc(O)cc3)nc(-c3csc4ccccc34)nc21 [StemRegenin 1] (10000 nM) | 100% |

Tested on: MDA-MB-436
Assay: as above
Details: incubation time: 72 h
Outline: as §2

| Structure (SMILES) | normalised response |
| --- | --- |
| CC1(COc2ccc3c(c2)ncn3-c2ccc3cccc(N4CCC(N)CC4)c3n2)COC1 [Crenolanib] (10000 nM) | 36.1% |
| CC[C@H](CO)Nc1nc(NCc2ccccc2)c2ncn(C(C)C)c2n1 [Seliciclib] (10000 nM) | 91.4% |
| O=[N+]([O-])c1ccc2c(c1)S(=O)(=O)C=C2 [Stattic] (50000 nM) | -15.2% |
| CC(C)n1cnc2c(NCCc3ccc(O)cc3)nc(-c3csc4ccccc34)nc21 [StemRegenin 1] (10000 nM) | 103% |

Tested on: CAL-148
Assay: as above
Details: incubation time: 72 h
Outline: as §2

| Structure (SMILES) | normalised response |
| --- | --- |
| CC1(COc2ccc3c(c2)ncn3-c2ccc3cccc(N4CCC(N)CC4)c3n2)COC1 [Crenolanib] (10000 nM) | -15.7% |
| CC[C@H](CO)Nc1nc(NCc2ccccc2)c2ncn(C(C)C)c2n1 [Seliciclib] (10000 nM) | 95.6% |
| O=[N+]([O-])c1ccc2c(c1)S(=O)(=O)C=C2 [Stattic] (50000 nM) | 25.6% |
| CC(C)n1cnc2c(NCCc3ccc(O)cc3)nc(-c3csc4ccccc34)nc21 [StemRegenin 1] (10000 nM) | 104% |

Tested on: DU-4475
Assay: as above
Details: incubation time: 72 h
Outline: as §2

| Structure (SMILES) | normalised response |
| --- | --- |
| CC1(COc2ccc3c(c2)ncn3-c2ccc3cccc(N4CCC(N)CC4)c3n2)COC1 [Crenolanib] (10000 nM) | 63.6% |
| CC[C@H](CO)Nc1nc(NCc2ccccc2)c2ncn(C(C)C)c2n1 [Seliciclib] (10000 nM) | 105% |
| O=[N+]([O-])c1ccc2c(c1)S(=O)(=O)C=C2 [Stattic] (50000 nM) | 82.3% |
